In experiment [1] the target is Human RET protein (RET kinase) (Homo sapiens (Human), UniProt P07949). Kind of experiment: RET kinase activity, HTRF KinEASE-TK TR-FRET assay. The class given is biochemical. Particulars: inhibition of RET kinase; 9 concentrations 3200 nM~0.008 nM, 2% DMSO. The protocol:
Test Example 1. Determination of the Activity of the Compound of the Present Disclosure on RET Kinase
(§1) In this method, HTRF®KinEASE-TK Tyrosine Kinase Kit (Cat. No. 62TK0PEB) of Cisbio was used to determine the degree of phosphorylation of biotinylated polypeptide substrates by time-resolved fluorescence energy transfer (TR-FRET). Human RET protein (RET kinase) was purchased from Carna bioscience (Japan, Cat. No. 08-159-5 μg).
(§2) The experimental steps are as follows: • (1) The test compound (the compound of the present disclosure, and compound 164 in WO2018017983A1 as a control) was dissolved in 100% DMSO to a final concentration of 10 mM. • (2) 4 μL of the test compound solution prepared in step (1) was dissolved with 46 μL of 100% DMSO, and the solution obtained in this step was numbered as No. 2. • (3) No. 2 solution was subjected to subsequent gradient dilution with a dilution factor of 5 times (i.e. 20 μL of 100% DMSO was added to 5 μL of the compound), a total of 9 gradients, numbered 3 to 11.
Note: No. 2 was not used for the dilution in step (4).
(§3) (Unless otherwise specified, the following steps need to be carried out on ice) • (4) The buffer provided in the kit (Cisbio, Cat. No. 62TK0PEB) was used to continuously serially dilute the solutions numbered from 3 to 11 with a dilution factor of 20 times (that is, adding 19 μL of buffer to the solutions numbered from 3 to 11). At this time, the final concentration range of the test compound in the system No. 3 to 11 was 3200 nM˜0.008 nM (9 gradients), and the final concentration of DMSO was 2%. • (5) 9 compound solutions of gradient concentration in step (4) were added into a 384-well plate in order according to their concentration at 4 μL per well, and two duplicate wells were set. • (6) 2 μL of human RET protein was added to each well and incubated on ice for 10 minutes. • (7) 2 μL of ATP (Sigma #A7699) and 2 μL of biotinylated polypeptide substrate (Cisbio, Cat. No. 62TK0PEB) were added to each well to start the phosphorylation reaction, and incubated at 37° C. for half an hour. • (8) 5 μL of anti-phosphotyrosine antibody coupled with europium compound (provided in the kit, Cat. No. 62TK0PEB) and 5 μL of streptavidin coupled with modified allophycocyanin XL665 (Cisbio, Cat. No. 62TK0PEB) were added to each well. • (9) The plate was continued to incubate for 1 hour at room temperature. After the incubation, the TF-FRET mode of the microplate reader (BMG Labtech, model: FLUOStar Omega) was adopted to measure the fluorescence intensity at an excitation wavelength of 304 nm and emission wavelengths of 615 nm and […] in each well. The ratio would be calculated automatically. • (10) By comparing the fluorescence intensity ratio in the control group, the inhibition rate of the compound at each concentration was calculated, and GraphPad Prism 5 was used to perform curve fitting with logarithmic concentration-inhibition rate to calculate the IC50 value of the compound.

A further experiment deals with KDR kinase (Homo sapiens (Human), UniProt P35968). Nature of the experiment: KDR control kinase activity, HTRF KinEASE-TK TR-FRET assay. The class given is biochemical. Particulars: inhibition of KDR kinase; 16000 nM~0.04 nM, 2% DMSO. Here is the method:
as §1, §2, §3
The selected control kinase is another receptor tyrosine kinase, KDR, with similar structure to RET kinase, purchased from Carna bioscience (Japan, Cat. No. 08-191-5 μg). The step of gradient dilution was the same as that of RET kinase, and the final concentration range of the test compound in the reaction system was 16000 nM˜0.04 nM (No. 2-10 solutions were used for the gradient dilution in step 4). Other reaction conditions were the same as above, and the final concentration of DMSO was 2%. The calculation method for the IC50 value of KDR kinase inhibition by the test compound was the same as the calculation method for the IC50 value of RET kinase inhibition.
(In general: Time-resolved FRET reads energy transfer from a long-lived donor to a nearby acceptor.)

One may read the IC50 as the concentration at which inhibition is half-maximal.

Sequence of KDR kinase (P35968 20-1356): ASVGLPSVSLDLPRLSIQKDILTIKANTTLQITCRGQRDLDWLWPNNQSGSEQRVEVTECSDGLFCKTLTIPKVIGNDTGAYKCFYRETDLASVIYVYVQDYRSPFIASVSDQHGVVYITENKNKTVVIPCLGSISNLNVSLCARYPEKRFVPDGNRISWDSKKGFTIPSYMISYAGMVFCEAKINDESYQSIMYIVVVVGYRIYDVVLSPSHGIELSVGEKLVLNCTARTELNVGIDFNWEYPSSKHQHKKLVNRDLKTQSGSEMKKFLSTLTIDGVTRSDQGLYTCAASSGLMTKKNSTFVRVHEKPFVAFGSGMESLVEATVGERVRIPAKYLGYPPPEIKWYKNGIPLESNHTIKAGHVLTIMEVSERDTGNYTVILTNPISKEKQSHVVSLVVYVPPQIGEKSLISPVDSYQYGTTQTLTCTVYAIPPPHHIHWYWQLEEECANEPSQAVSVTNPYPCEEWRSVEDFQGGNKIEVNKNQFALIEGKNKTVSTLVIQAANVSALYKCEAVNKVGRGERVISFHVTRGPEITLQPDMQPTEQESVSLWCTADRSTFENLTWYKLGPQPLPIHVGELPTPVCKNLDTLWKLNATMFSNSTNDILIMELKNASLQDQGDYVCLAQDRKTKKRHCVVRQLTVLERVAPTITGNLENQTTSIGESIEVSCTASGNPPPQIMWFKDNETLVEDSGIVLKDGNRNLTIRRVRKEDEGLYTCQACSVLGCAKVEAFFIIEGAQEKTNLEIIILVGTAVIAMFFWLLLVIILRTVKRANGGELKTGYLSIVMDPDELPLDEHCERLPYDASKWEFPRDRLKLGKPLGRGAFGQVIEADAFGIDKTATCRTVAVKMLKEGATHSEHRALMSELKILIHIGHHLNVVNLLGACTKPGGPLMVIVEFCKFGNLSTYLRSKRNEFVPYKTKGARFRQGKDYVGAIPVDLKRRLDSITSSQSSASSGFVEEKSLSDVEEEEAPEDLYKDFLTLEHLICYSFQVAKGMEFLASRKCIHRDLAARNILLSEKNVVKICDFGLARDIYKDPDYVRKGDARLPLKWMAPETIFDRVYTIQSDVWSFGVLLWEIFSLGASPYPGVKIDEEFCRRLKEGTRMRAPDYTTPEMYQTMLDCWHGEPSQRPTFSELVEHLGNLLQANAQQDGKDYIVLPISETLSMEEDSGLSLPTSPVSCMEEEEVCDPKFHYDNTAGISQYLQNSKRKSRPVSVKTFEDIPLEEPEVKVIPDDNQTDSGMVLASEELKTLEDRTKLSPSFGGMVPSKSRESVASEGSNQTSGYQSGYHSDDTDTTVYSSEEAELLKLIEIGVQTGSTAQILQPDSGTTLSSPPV
Sequence of Human RET protein (RET kinase) (P07949 29-1114): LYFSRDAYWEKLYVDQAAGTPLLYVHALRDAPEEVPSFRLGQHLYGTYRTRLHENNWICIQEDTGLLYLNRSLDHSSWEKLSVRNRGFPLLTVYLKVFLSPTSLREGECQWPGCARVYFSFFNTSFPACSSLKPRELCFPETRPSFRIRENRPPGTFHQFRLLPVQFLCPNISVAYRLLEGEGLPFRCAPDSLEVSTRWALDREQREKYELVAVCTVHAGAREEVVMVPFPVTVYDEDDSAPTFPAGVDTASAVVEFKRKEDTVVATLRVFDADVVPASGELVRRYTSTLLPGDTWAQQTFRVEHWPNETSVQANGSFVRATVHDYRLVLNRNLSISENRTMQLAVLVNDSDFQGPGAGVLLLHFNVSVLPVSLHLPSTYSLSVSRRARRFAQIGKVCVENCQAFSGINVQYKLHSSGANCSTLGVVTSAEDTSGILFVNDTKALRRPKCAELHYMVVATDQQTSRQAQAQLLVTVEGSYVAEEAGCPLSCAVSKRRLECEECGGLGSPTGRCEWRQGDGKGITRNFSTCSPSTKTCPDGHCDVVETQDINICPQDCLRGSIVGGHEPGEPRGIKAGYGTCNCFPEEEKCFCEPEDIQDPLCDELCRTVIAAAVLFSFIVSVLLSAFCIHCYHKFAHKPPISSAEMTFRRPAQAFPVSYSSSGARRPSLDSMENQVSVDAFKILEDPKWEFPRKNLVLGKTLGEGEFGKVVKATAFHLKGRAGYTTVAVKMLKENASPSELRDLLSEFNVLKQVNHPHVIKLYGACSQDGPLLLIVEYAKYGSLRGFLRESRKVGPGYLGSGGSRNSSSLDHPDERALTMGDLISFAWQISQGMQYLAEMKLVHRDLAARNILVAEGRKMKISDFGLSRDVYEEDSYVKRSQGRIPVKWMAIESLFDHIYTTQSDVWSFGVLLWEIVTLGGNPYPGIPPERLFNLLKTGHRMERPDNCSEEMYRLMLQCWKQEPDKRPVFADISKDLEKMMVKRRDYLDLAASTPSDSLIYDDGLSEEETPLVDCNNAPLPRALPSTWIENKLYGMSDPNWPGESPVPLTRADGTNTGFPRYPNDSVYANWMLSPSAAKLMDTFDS

On to `Cc1cc(Nc2cc(C)[nH]n2)nc(N2CC3CCC(C2)N3C(=O)c2ccc(-n3cc(F)cn3)nn2)n1` [Compound I-13, (6-(4-fluoro-1H-pyrazol-1-yl)pyridazin-3-yl)(3-(4-methyl-6-((5-methyl-1H-pyrazol-3-yl)amino)pyrimidin-2-yl)-3,8-diazabicyclo[3.2.1]octane-8-yl)methanone], for which the values for the IC50 (in experiment [1]; on KDR kinase) were 1.5 nM and 78 nM, respectively.
The corresponding values for `Cc1cc(Nc2cc(C(F)(F)F)nc(N3CC4CCC(C3)N4C(=O)c3ccc(-n4cc(F)cn4)nn3)n2)n[nH]1` [Compound I-16, (6-(4-fluoro-1H-pyrazol-1-yl)pyridazin-3-yl)(3-(4-((5-methyl-1H-pyrazol-3-yl)amino)-6-(trifluoromethyl)pyrimidin-2-yl)-3,8-diazabicyclo[3.2.1]octane-8-yl)methanone] are 8 nM and 738 nM.
For `Cc1cc(Nc2cc(C(=O)O)nc(N3CC4CCC(C3)N4C(=O)c3ccc(-n4cc(F)cn4)nc3)n2)n[nH]1` [Compound I-19, 2-(8-(6-(4-fluoro-1H-pyrazol-1-yl)nicotinoyl)-3,8-diazabicyclo[3.2.1]octane-3-yl)-6-((5-methyl-1H-pyrazol-3-yl)amino)pyrimidin-4-formic acid] the same measures were 25.6 nM and 2760 nM.
For `Cc1cc(Nc2cc(CO)nc(N3CC4CCC(C3)N4C(=O)c3ccc(-n4cc(F)cn4)nc3)n2)n[nH]1` [Compound I-20, (6-(4-fluoro-1H-pyrazol-1-yl)pyridin-3-yl)(3-(4-(hydroxymethyl)-6-((5-methyl-1H-pyrazol-3-yl)amino)pyrimidin-2-yl)-3,8-diazabicyclo[3.2.1]octane-8-yl)methanone] the same measures were 3 nM and 1550 nM.
`Cc1cc(Nc2cc(C)[nH]n2)nc(N2CC3CCC(C2)N3C(=O)c2ccc(-c3cnn(C)c3)nn2)n1` [Compound I-22, (6-(1-methyl-1H-pyrazol-4-yl)pyridazin-3-yl)(3-(4-methyl-6-((5-methyl-1H-pyrazol-3-yl)amino)pyrimidin-2-yl)-3,8-diazabicyclo[3.2.1]octane-8-yl)methanone]: the IC50 is 2 nM in experiment [1] and 221 nM on KDR kinase.
As for `Cc1cc(Nc2cc(C)[nH]n2)nc(N2CC3CCC(C2)N3C(=O)c2ccc(-c3cnn(C)c3)nc2)n1` [Compound I-24, (6-(1-methyl-1H-pyrazol-4-yl)pyridin-3-yl)(3-(4-methyl-6-((5-methyl-1H-pyrazol-3-yl)amino)pyrimidin-2-yl)-3,8-diazabiciyclo [3.2.1]octane-8-yl) methanone], the IC50 amounted to 8.1 nM in experiment [1] and 374 nM against KDR kinase.
For the compound `Cc1cc(Nc2cc(C)[nH]n2)nc(N2CC3CCC(C2)N3C(=O)c2ccc(-c3ccc(F)cc3)nc2)n1` [Compound I-25, (6-(4-fluorophenyl)pyridin-3-yl)(3-(4-methyl-6-((5-methyl-1H-pyrazol-3-yl)amino)pyrimidin-2-yl)-3,8-diazabicyclo[3.2.1]octane 8-yl)methanone], the IC50 is 5.6 nM in experiment [1] and 260 nM against KDR kinase.
As to `Cc1cc(Nc2cc(C)[nH]n2)nc(N2CC3CCC(C2)N3C(=O)c2ccc(-c3ccncc3)nc2)n1` [Compound I-28, [2,4′-bipyridin]-5-yl(3-(4-methyl-6-((5-methyl-1H-pyrazol-3-yl)amino)pyrimidin-2-yl)-3,8-diazabicyclo [3.2.1]octane-8-yl)methanone], the IC50 in experiment [1] was found to be 2.6 nM; against KDR kinase, 467 nM.
The corresponding values for `Cc1cc(Nc2cc(C)[nH]n2)nc(N2C3CCC2CN(C(=O)c2ccc(-n4cc(F)cn4)nn2)C3)c1` [Compound I-30, (6-(4-fluoro-1H-pyrazol-1-yl)pyridazin-3-yl)(8-(4-methyl-6-((5-methyl-1H-pyrazol-3-yl)amino)pyridin-2-yl)-3,8-diazabicyclo[3.2.1]octane-3-yl)methanone] are 1.8 nM and 95 nM.

The values are drawn from US12234222B2, “Piperazine amide derivative, preparation method therefor, and use thereof in medicine” (ZHEJIANG HISUN PHARMACEUTICAL CO., LTD., priority 2019, dated 2025).
